The target of one data set is reverse transcriptase (Human immunodeficiency virus type 1 group M subtype B, UniProt P04585). The settings on record: cited from earlier work.
For data set [1], the system named is non-infected CEM-SS cells. As to the kind of experiment: Toxic effect on non-infected cells (MTT/formazan), CEM-SS. The format is cell-based, Human. The settings on record: 50% inhibition of formazan formation, 5 days. As to the method:
(§1) The toxic effect on non-infected CEMs is assessed by a calorimetric reaction based on the capacity of living cells to reduce 3-(4,5-dimethylthiazol-2-yl)-2,5-diphenyltetrazolium bromide into formazan after incubation for 5 days in the presence of various concentrations of the compounds.

For data set [2], the system named is non-infected CEM-TK− cells. As to the kind of experiment: Toxic effect on non-infected cells (MTT/formazan), CEM-TK−. Format: cell-based, Human. The settings on record: 50% inhibition of formazan formation, 5 days. As to the method: as §1
For data set [3], the system named is HIV-1 (LAI isolate). As to the kind of experiment: Anti-HIV-1 activity (RTase in culture supernatant) in CEM-TK− cells. Format: cell-based. Particulars: for EC50: CEM-TK− cells, lowest concentration reducing RTase production by at least 50%, 5 days, read-out: ED50 (the source's name). As to the method: (§2) HIV-1 replication (LAI isolate) in CEM cells is measured by assaying the reverse transcriptase (RTase) in the culture supernatant after infection for 5 days. This activity reflects the presence of the virus released by the cells. After adsorption of the virus, the test compounds are added, at various concentrations, to the culture medium.
(§3) Antiviral activity is expressed as the lowest concentration of compound which reduces the production of RTase by at least 50% (ED50)
(§4) The compounds were tested as described in Example 5 above.
(§5) The iso-SATE pronucleotides of Examples 16A and 16B were evaluated for their inhibitory effects on the replication of HIV-1 in CEM-SS and in thymidine-kinase deficient cell lines (CEM/TD). For comparison, the parent nucleosides ddA and d4T, and the corresponding bis(SATE) phosphotriesters bis(tBuSATE)ddAMP (the compound of Example 9) and bis(tBuSATE)d4TMP, were evaluated in the same experiments.

For another data set, the system named is non-infected MT-4 cells. As to the kind of experiment: Toxic effect on non-infected cells (MTT/formazan), MT-4. The format is cell-based, Human. The settings on record: 50% inhibition of formazan formation.
Data set [4] is classed as in vitro ADME, Human. As to the method: (§6) The “ISRP on line” HPLC technique (“On-line Internal Surface Reversed-Phase Cleaning: The Direct HPLC Analysis of Crude Biological Samples”, A. Pompon, I. Lefebvre and J. L. Imbach, Biochemical Pharmacology, 43,1769-1775 (1992) was used for this study, the compound studied being incubated respectively in culture medium (RPMI/10% inactivated serum) and in a total cell extract (CEM).
(§7) Certain kinetic studies comparing the compound of Example 16A, i.e., S,S′-bis(O-pivaloyl-2-oxyethyl) O-2, 3-dideoxyadenosin-5′-yl phosphorodithiolate, also designated as iso[Bis(SATE)ddA] and its isosteric compound of Example 9, i.e., O-(2′,3′-dideoxyadenosin-5′-yl)-O,O′-bis([…]) phosphate, also designated as [Bis(SATE)ddAMP] were effected. The kinetic were studies were performed in culture medium (RPMI containing […] heat-inactivated fetal calf serum) in order to evaluate the stability of the pronucleotides in the extracellular medium used for antiviral evaluation in cell culture systems, and in total cell extracts that mimic the behavior of the compounds inside cells. The “on-line ISPR cleaning” HPLC method of Lefebvre et al., J. Med. Chem., 38, 3941-3950, 1995, were used for the studies. The products resulting from the decomposition were characterized by co-injection with authentic samples and/or by coupled HPLC/Mass Spectroscopy. The kinetics of transformation of the two isomeric pronucleotides strongly differed according to the medium. In culture medium the first iso-SATE group was cleaved in 38.5 hr whereas the first SATE group was cleaved in 165 hr. The second iso-SATE group was cleaved in 5.8 hr whereas the second SATE group was cleaved in 46 hr. In total cell extracts, the first iso-SATE group was cleaved in 5.3 hr whereas the SATE group was cleaved in 1 hr.

The format of data set [5] is in vitro ADME. As to the method:
as §6, §7

In data set [6] the test system is HIV-1 (LAI isolate). Put plainly: Anti-HIV-1 activity (RTase in culture supernatant) in CEM-SS cells. The settings on record: lowest concentration reducing RTase production by at least 50%, 5 days, read-out: ED50 (the source's name). Format: cell-based. As to the method:
as §2, §3, §4, §5

The next data set has as its system HIV-1. Put plainly: Anti-HIV-1 activity in MT-4 cells. The format is cell-based, Human immunodeficiency virus. Particulars: for EC50: read-out: ED50 (the source's name). As to the method:
as §2, §3, §4

The mark [7] stands for this setting: culture medium (RPMI with heat-inactivated fetal calf serum).

Molecules are shown by their SMILES. Where two headings read alike, the source gives them in different places.

On to `O=c1ccn([C@H]2CC[C@@H](COP(=O)(O)OP(=O)(O)OP(=O)(O)O)O2)c(=O)[nH]1` [2′,3′-Dideoxyuridine 5′-triphosphate], for which the “inhibition of reverse transcriptase (in words)” value on reverse transcriptase is “excellent inhibitor”.

Regarding `Cc1cn([C@H]2C[C@H](N=[N+]=[N-])[C@@H](CO)O2)c(=O)[nH]c1=O` [AZT, 3′-azido-2′,3,-dideoxythymidine, reference compound], the CD50 entry (in data set [1]; in data set [2]; in the data set with non-infected MT-4 cells) was “(CD50 > 10^−4 M)” each time. Moreover, in the data set with HIV-1 (LAI isolate) [3], the EC50 was > 100 µM.

In the case of `CC(=O)SCCOP(=O)(OCCSC(C)=O)OC[C@@H]1CC[C@H](n2cnc3c(N)ncnc32)O1` [Bis(SATE)ddAMP, O-(2′,3′-Dideoxyadenosin-5′-yl)—O,O′-bis(S-acetyl-2-thioethyl)-phosphate], the “time in which the first (iso-)SATE group was cleaved” value (“time in which the first” for short) in [4] came to 1 h. Besides, in data set [2], the CD50 result is listed as “(CD50 > 10^−5 M)”. In [5], the “time in which the first” value is 165 h and the “time in which the second (iso-)SATE group was cleaved” value stood at 46 h.

For `CC(=O)SCCOP(=O)(OCCSC(C)=O)OC[C@@H]1CC[C@H](n2cnc3c(=O)[nH]cnc32)O1` [Bis(SATE)ddIMP, O-(2′,3″ -Dideoxyinosin-5′-yl)-O,O′-bis(S-acetyl-2-thioethyl)-phosphate], the CD50 entry (in data set [1]; in data set [2]; in the data set with non-infected MT-4 cells) was “(CD50 > 10^−4 M)” each time.

For `CC(=O)SCCOP(=O)(OCCSC(C)=O)OC[C@@H]1CC[C@H](n2cc(C)c(=O)[nH]c2=O)O1` [Bis(SATE)ddTMP, O-(2′,3′-Dideoxythymidin-5′-yl)-O,O′-bis(S-acetyl-2-thioethyl)-phosphate], in data set [2], the CD50 entry is on record as “(CD50 > 10^−4 M)”.

For `CC(=O)SCCOP(=O)(OCCSC(C)=O)OC[C@@H]1CC[C@H](n2ccc(=O)[nH]c2=O)O1` [Compound 1, O-(2′,3′-dideoxyuridin-5′-yl)-O,O′-bis(S-acetyl-2-thioethyl)phosphate], the EC50 in the data set with HIV-1 (LAI isolate) [6] turned out to be 5 µM; with HIV-1 (LAI isolate) [3], 4 µM. The CD50 result in [1] was “(CD50 9 · 10^−5 M)”; in data set [2] it was “(CD50 7 · 10^−5 M)”; in the data set on non-infected MT-4 cells it was “(CD50 9 · 10^−5 M)”. The ED50 with HIV-1 is listed as 2 · 10^−6 M.

Turning to `O=c1ccn([C@H]2CC[C@@H](COP(=O)(OCCSSCCO)OCCSSCCO)O2)c(=O)[nH]1` [Compound 2, O,O′-Bis(S-(2-hydroxyethylsufidyl)-2-thioethyl)-o-(2′,3′-dideoxyuridin-5′-yl)phosphate], the EC50 in the data set with HIV-1 (LAI isolate) [6] is 60 µM; in the data set on HIV-1 (LAI isolate) [3], 8 µM. Further, in data set [4] (total cell extract (CEM)), the “half-life in cell extract” value is recorded as “less than 5 minutes”. Besides, the CD50 result in data set [1] is given as “(CD50 10^−4 M)”; in data set [2], “(CD50 8 · 10^−5 M)”. Also, the “half-life in culture medium” value in data set [5] (RPMI/10% inactivated serum) was determined as 9 h.

`Cc1cn([C@H]2C[C@H](N=[N+]=[N-])[C@@H](COP(=O)(OCCSSCCO)OCCSSCCO)O2)c(=O)[nH]c1=O` [Compound 3, O,O′-Bis(S-(2-hydroxyethylsufidyl)-2-thioethyl)-O-(3′azido-3′-deoxythymidin-5′-yl)phosphate]: the EC50 in the data set with HIV-1 (LAI isolate) [6] is 0.0007 µM; in the data set on HIV-1 (LAI isolate) [3] it was 7 µM; in the data set with HIV-1, 1 nM. For the same compound, the CD50 entry (in [1]; in [2]; in the data set with non-infected MT-4 cells) was “(CD50 8 · 10^−5 M)” in each case.

`Nc1ncnc2c1ncn2CCOCP(=O)(OCCSSCCO)OCCSSCCO` [Compound 4]: the EC50 worked out at 3 µM with HIV-1 (LAI isolate) [6], 0.08 µM in the data set on HIV-1 (LAI isolate) [3] and 800 nM in the data set with HIV-1. Moreover, the figures for the CD50 entry (in data set [1]; in data set [2]; in the data set with non-infected MT-4 cells) were “(CD50 > 10^−4 M)”, “(CD50 4 · 10^−5 M)” and “(CD50 2 · 10^−5 M)”, respectively.

`Cc1cn([C@H]2C=C[C@@H](CO)O2)c(=O)[nH]c1=O` [d4T, reference compound]: in the data set on HIV-1 (LAI isolate) [3] (thymidine-kinase deficient CEM cells), the “anti-HIV-1 activity (in words, FIG. 10)” value is “weakly active”.

For the compound `Nc1ncnc2c1ncn2[C@H]1CC[C@@H](CO)O1` [ddA, reference compound], the CD50 entry (in [1]; in data set [2]; in the data set on non-infected MT-4 cells) was “(CD50 > 10^−4 M)” each time. For the same compound, in the data set with HIV-1, the EC50 amounted to 10000 nM.

For `O=c1[nH]cnc2c1ncn2[C@H]1CC[C@@H](CO)O1` [ddI, reference compound], the CD50 result (in data set [1]; in [2]; with non-infected MT-4 cells) was “(CD50 > 10^−4 M)” throughout.

With `CC(C)(C)C(=O)OCCSP(=O)(OC[C@@H]1CC[C@H](n2cnc3c(N)ncnc32)O1)SCCOC(=O)C(C)(C)C` [iso[Bis(SATE)ddA], S,S′-bis (Ö-pivaloyl-2-oxyethyl) O2′,3′-dideoxyadenosin-5′-yl phosphorodithiolate], the “time in which the first” value in data set [4] (total cell extracts) was determined as 5.3 h. In addition, in data set [5] (setting [7]), the “time in which the first” value was 38.5 h and the “time in which the second (iso-)SATE group was cleaved” value is 5.8 h.

Source of the values: patent US6555676B2, “Biologically active phosphotriester-type compounds” (Centre National de la Recherche Scientifique, priority 1992, dated 2003).
